Consider three compounds from patent US20230250054A1, “SELECTIVE HISTONE DEACETYLASE 6 INHIBITORS” (The Board of Trustees of the University of Illinois, priority 2020, published 2023).

One may read the IC50 as the concentration that gives 50% inhibition. A high value points to a need for much substance.

One data set has as its target T1, HDAC2 (Homo sapiens, UniProt Q92769).
T1 construct: made in house; host or cells: HEK293/T17 cells, transient transfection
The data set can be described thus: Fluorescence-based HDAC inhibition assay, HDAC2. In kind it is biochemical. The following applies: for IC50: 10 μM Ac-GAK(Ac)-AMC substrate, mean of two experiments ± SEM. As for the experimental part:
(§1) Briefly, transiently transfected cells were harvested three days post-transfection and the cell pellets resuspended in a lysis buffer (50 mM Tris, 150 mM NaCl, 10 mM KCl, 2 mM MgCl2, 10% glycerol, 0.2% NP-40, 2 Units/mL benzonase, pH 8) supplemented with a cocktail of protease inhibitors (Roche, Basel, Switzerland). Cells were lysed by sonication (30 W; 3×20 s) on ice, and the cell lysate cleared by centrifugation at 40 000×g for 30 min at 4° C. […] Purified proteins were concentrated to 1 mg/mL, aliquoted, flash-frozen in liquid nitrogen, and stored at −80° C. until further use.
(§2) Briefly, individual HDACs were preincubated with dilution series of tested inhibitors (0-100 μM) in a 384-well plate in the total volume of 40 μL for 10 min at 37° C. in a reaction buffer comprising 50 mM HEPES, 140 mM NaCl, 10 mM KCl, 1 mM TCEP, 0.1% BSA, pH 7.4. Deacetylation reaction was started by the addition of 10 μL of a 10 μM substrate into the HDAC/inhibitor mixture. Following the 30 min incubation at 37° C., the reaction was terminated by the addition of 25 μL of the trypsin solution (4 mg/mL). Fluorescence development by trypsin was carried out at 37° C. for 15 and 60 min for Ac-GAK(Ac)-AMC and Boc-Lys(TFA)-AMC substrate, respectively. […] Non-linear regression analysis was employed to calculate IC50 values using the GraphPad Prism software. […] Reactions without the enzyme or the inhibitor were used to define 0% and 100% of the HDAC activity, respectively.

In a further data set the target is T2, HDAC7 (Homo sapiens, UniProt Q8WUI4).
T2 construct: made in house; host or cells: HEK293/T17 cells, transient transfection
T2 sequence (Q8WUI4 1-952): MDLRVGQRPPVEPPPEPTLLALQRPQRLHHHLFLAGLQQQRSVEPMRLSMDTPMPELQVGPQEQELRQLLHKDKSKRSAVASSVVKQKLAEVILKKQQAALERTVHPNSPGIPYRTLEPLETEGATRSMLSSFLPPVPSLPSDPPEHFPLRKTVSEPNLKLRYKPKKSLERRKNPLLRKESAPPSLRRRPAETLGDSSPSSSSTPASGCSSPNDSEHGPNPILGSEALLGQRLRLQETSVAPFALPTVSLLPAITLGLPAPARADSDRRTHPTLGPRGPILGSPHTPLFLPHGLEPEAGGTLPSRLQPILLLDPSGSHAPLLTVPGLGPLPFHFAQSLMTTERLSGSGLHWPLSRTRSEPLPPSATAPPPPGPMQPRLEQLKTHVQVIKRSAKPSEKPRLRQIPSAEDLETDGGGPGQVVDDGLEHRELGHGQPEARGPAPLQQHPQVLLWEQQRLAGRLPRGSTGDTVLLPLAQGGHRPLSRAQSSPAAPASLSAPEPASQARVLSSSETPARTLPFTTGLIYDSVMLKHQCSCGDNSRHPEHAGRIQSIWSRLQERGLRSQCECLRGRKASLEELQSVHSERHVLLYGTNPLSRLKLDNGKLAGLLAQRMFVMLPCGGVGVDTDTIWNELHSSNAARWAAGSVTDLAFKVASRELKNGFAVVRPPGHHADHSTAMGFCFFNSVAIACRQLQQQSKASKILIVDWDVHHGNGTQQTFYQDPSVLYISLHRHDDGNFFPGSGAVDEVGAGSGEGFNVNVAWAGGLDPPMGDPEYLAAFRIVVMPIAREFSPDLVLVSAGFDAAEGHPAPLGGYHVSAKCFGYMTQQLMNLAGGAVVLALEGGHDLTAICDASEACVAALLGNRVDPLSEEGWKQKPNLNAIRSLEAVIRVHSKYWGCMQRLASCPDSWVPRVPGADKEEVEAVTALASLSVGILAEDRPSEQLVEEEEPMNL
The data set can be described thus: Fluorescence-based HDAC inhibition assay, HDAC7. To be noted: for IC50: 10 μM Boc-Lys(TFA)-AMC substrate, mean of two experiments ± SEM. In kind it is biochemical. As for the experimental part:
as §1, §2

The next data set deals with plasma protein. The experiment in a line: Protein binding in human plasma. To be noted: plasma protein-bound fraction, mean with standard error.

T1 sequence (Q92769 whole entry): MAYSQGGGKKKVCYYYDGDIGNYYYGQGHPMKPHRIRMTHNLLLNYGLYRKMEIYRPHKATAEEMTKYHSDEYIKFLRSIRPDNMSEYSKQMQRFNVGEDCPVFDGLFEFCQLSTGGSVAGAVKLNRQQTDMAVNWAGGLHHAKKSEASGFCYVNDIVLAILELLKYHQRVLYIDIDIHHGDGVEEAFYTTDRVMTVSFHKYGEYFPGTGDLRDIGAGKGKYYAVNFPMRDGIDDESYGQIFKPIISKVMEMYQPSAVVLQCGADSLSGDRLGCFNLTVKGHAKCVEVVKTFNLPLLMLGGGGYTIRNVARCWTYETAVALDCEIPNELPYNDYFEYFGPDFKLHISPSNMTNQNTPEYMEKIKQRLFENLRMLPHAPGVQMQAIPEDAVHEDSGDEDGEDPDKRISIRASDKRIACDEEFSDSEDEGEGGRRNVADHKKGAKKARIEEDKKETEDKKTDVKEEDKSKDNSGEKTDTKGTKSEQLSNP

For the compound `NCc1ccc(NC(=O)N(CCCCO)Cc2ccc(C(=O)NO)cc2)cc1` [Compound 6a, 4-((3-(4-(Aminomethyl)phenyl)-1-(4-hydroxybutyl)ureido)methyl)-N-hydroxybenz-amide], at HDAC2, the “SI (HDAC6 selectivity index over HDAC2)” value worked out at 440 and the IC50 worked out at 176 ± 21 nM. For the same compound, at HDAC7, the “SI (HDAC6 selectivity index over HDAC7)” value was 3,680 and 1470 nM corresponded to half-maximal inhibition (IC50). For the same compound, the “Human plasma binding (%)” value in the data set on plasma protein was 1.9%. Further, the “Human plasma binding (%)” value in the data set with plasma protein (listed as Suprastat) turned out to be 1.9%.
Take `O=C(NO)c1ccc(CN(CCCCO)C(=O)Nc2ccccc2)cc1` [Compound 6c, reference compound]: at HDAC2, the “SI (HDAC6 selectivity index over HDAC2)” value stood at 536 and the 50% inhibitory concentration (IC50) came to 268 ± 16 nM. Also, half-maximal inhibition on HDAC7 (IC50) required 1930 nM. The “Human plasma binding (%)” value with plasma protein is reported as “approximately 50%”.
As to `CCCCN(Cc1ccc(C(=O)NO)cc1)C(=O)Nc1ccc(CN)cc1` [Compound 6b, 4-((3-(4-(Aminomethyl)phenyl)-1-butylureido)methyl)-N-hydroxybenzamide], at HDAC2, the “SI (HDAC6 selectivity index over HDAC2)” value was 312 and the half-inhibitory concentration (IC50) was determined as 281 ± 28 nM. For the same compound, on HDAC7, the “SI (HDAC6 selectivity index over HDAC7)” value is 10,000 and the 50% inhibitory concentration (IC50) was determined as 9000 nM. In addition, the “Human plasma binding (%)” value with plasma protein is recorded as “approximately 50%”.
